Measurements as given in article PMC6374824 (International Journal of Endocrinology, 2019).
“Also recorded” adds a separate entry of the source. Blank lines part the entries; values can stand above or below the substance they belong to.

Columns and labels:
hIAPP [1] = target: T1, hIAPP (Homo sapiens, UniProt P10997); experiment: Thioflavin T fluorescence assay, time course; format: biochemical; details: for ThT fluorescence intensity compared to hIAPP group, significance: PBS pH 7.4, 37°C, unpaired t-test
T1 construct: hormone secreted by β-cells consisting of 37 amino acid residues; purchased ChinaPeptide Co. Ltd. (Shanghai, China); host or cells: chemical synthesis
T1 sequence (P10997 34-70 limits assumed): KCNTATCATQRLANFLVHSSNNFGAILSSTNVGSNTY

hIAPP [2] = target: T1, hIAPP; experiment: Biolayer interferometry, FLPNF immobilized; format: binding; details: hIAPP 400 μM (method) / 100 μM (Figure 5 legend)
Procedure: Experiments were performed by Shuangtian Biotech Co. Ltd. FLPNF were reconstituted in PBS (pH = 7.4) and immobilized on aminopropylsilane (APS) biosensors. […] This was followed by a 600 sec dissociation phase in dissociation buffer (50% DMSO+0.05% PBST) in PBS. A response unit represented the bonding height on the biosensor. The association and dissociation curves were analyzed and constructed by Octet K2 biolayer interferometry.

INS-1 cells = experiment: Cell proliferation assay (MTS), hIAPP cytotoxicity in INS-1 cells
Procedure: The INS-1 cells at a density of 2 × 10^4 were plated in a 96-well plate. […] The untreated control cells received equal fresh medium. The medium of each group contained 0.2 μL DMSO, equal to 0.2% DMSO. Consequently, 10 μL MTS solution was added to each well and incubated for additional 2 hours. The optical density (OD) values were measured at 490 nm using a PowerWave XS2 microplate spectrophotometer (Thermo Scientific, USA). Each experiment was repeated thrice.

hIAPP [3] = target: T1, hIAPP; experiment: Thioflavin T fluorescence assay, concentration dependence; format: biochemical; details: PBS, 24 hours, 37°C
Procedure: The stock solutions were aliquoted and stored at -80°C according to the instructions.
The plates were incubated at 37°C for 0, 12, 24, and 48 hours. Finally, the fluorescence image was detected by an XDY-100 fluorescence microscope (Zhongheng, Shanghai, China). Subsequently, the fluorescence intensity values of each group were measured by a Fluoroskan Ascent FL luminescence meter (Thermo Scientific, USA) using an excitation λ of 435 nm and an emission λ of 485 nm. At each time course, the fluorescence intensity values of the control group were set as 1, while the values of test groups relative to the control group were set as fluorescence intensity (A.U.) and used for statistical analysis. Each experiment was repeated thrice.
The fluorescence images and the fluorescence intensity values of each group were collected after incubating for 24 hours. Each experiment was repeated thrice.

hIAPP amyloid fibrils = experiment: Transmission electron microscopy of hIAPP amyloid fibrils; format: biochemical, human; details: PBS, 24 hours, 37°C, 2% phosphotungstic acid stain; for hIAPP fibril formation by TEM, with added peptide: 100 μM peptide + 10 μM hIAPP
Procedure: TEM was used to directly observe the relative density and morphological changes of hIAPP amyloid fibrils. […] A volume of 10 μL of each sample was placed on mesh copper grids (Servicebio, Wuhan, China) and was covered by a carbon-stabilized formvar film. After 3 min, excess fluid was removed, and the grids were stained with 2% phosphotungstic acid for 3 min. Samples were analyzed using a HT7700 transmission electron microscope (Hitachi, Japan).

hIAPP [4] = target: T1, hIAPP; details: ref [25], cited from earlier work; for inhibition of hIAPP aggregation in vitro: [26]
From the text: In the present study, a pentapeptide inhibitor Phe-Leu-Pro-Asn-Phe (FLPNF) that contains only five amino acids has been designed. […] After that, the ...

fibrils of hIAPP = details: ref [25]; cited from earlier work
From the text: In the early research, SNNFGA and GAILSS could not completely prevent the formation of fibr ...

islet amyloid = details: ref [27]; cited from earlier work
From the text: In the present study, a pentapeptide inhibitor Phe-Leu-Pro-Asn-Phe (FLPNF) that contains only five amino acids has been designed. […] Even so, FLPNF was optimally designed and consisted of ...

ThT fluorescence intensity compared to hIAPP group, significance (hIAPP [1]; 100 μM FLPNF + 10 μM hIAPP, 24 h, P < 0.05, ex 435 nm, em 485 nm, repeated thrice): significantly lowered
ThT fluorescence intensity compared to hIAPP group, significance (hIAPP [1]; 100 μM FLPNF + 10 μM hIAPP, 48 h, P < 0.01, ex 435 nm, em 485 nm, repeated thrice): significantly lowered
inhibitory effect at 48 hours (hIAPP [1]; in vitro, 48 hours): still had an inhibitory effect
inhibition of amyloid formation (hIAPP [1]; tenfold molar excess to hIAPP, PBS, 24 hours): partially inhibited amyloid formation
association response (response units) (hIAPP [2]; FLPNF immobilized on APS biosensor, PBS pH 7.4, association 300 sec, Octet K2): approximately 0.02 nm
interaction between FLPNF and hIAPP (hIAPP [2]; biolayer interferometry, immobilized FLPNF): strong interaction
ThT green fluorescence signal with increasing concentrations (fluorescence microscope) (hIAPP [3]; 0, 20, 50, 100, 200, 400 μM FLPNF + 10 μM hIAPP): gradually decreased
ThT fluorescence intensity with increasing concentrations (luminescence meter) (hIAPP [3]; 0, 20, 50, 100, 200, 400 μM FLPNF + 10 μM hIAPP, repeated thrice): gradually reduced
ThT fluorescence intensity compared to 0 μM group (hIAPP [3]; 100, 200 and 400 μM FLPNF + 10 μM hIAPP, P < 0.05, unpaired t-test, repeated thrice): significantly lowered
Substance: Phe-Leu-Pro-Asn-Phe [FLPNF]
ThT fluorescence intensity compared to hIAPP alone (luminescence meter) (hIAPP [1]; 100 μM FLPNF + 10 μM hIAPP, PBS pH 7.4, 20 μM ThT, 37°C, 12, 24 and 48 hours, ex 435 nm, em 485 nm, repeated thrice): decreased the fluorescence intensity compared to hIAPP alone
ThT fluorescence signal (fluorescence microscope) (hIAPP [1]; 100 μM peptide + 10 μM hIAPP, PBS pH 7.4, 20 μM ThT, 37°C, 24 and 48 hours): strong reduction of the fluorescence signal
inhibition of hIAPP amyloid aggregation (hIAPP [1]; 10 : 1 molar ratio FLPNF to hIAPP, in vitro, ThT): strongly inhibited the amyloid aggregation of hIAPP
dissociation (hIAPP [2]; dissociation phase 600 sec, 50% DMSO+0.05% PBST in PBS, Octet K2): tardily reversible; also recorded: slowly dropped to 0
INS-1 cell viability compared to hIAPP group (INS-1 cells; 100 μM FLPNF + 10 μM hIAPP, 24 hours, OD 490 nm, P < 0.05, unpaired t-test, repeated thrice): significant improvement in cell viability
INS-1 cell viability, FLPNF alone (INS-1 cells; FLPNF alone, no hIAPP, MTS): no direct effect on the viability of INS-1 cells; also recorded: no direct effect on cell viability
INS-1 cell viability compared to control group, with FLPNF + hIAPP (INS-1 cells; hIAPP with FLPNF at 1 : 10 ratio, 24 hours, MTS): still lower
hIAPP fibril formation by TEM, with added peptide (hIAPP amyloid fibrils): reduced the amounts of fibril formation; also recorded: not completely prevented but were reduced in density; also recorded: less numerous but appeared to be more thickened

Substance: NFGAILPP
inhibition of hIAPP aggregation in vitro (hIAPP [4]): can inhibit hIAPP aggregation in vitro

Substance: GAILSS
inhibition of hIAPP aggregation in vitro (hIAPP [4]): can inhibit hIAPP aggregation in vitro
prevention of hIAPP fibril formation on TEM images (fibrils of hIAPP): could not completely prevent the formation of fibrils of hIAPP

Substance: D-ANFLVH
reduction of amyloid aggregates in vivo (islet amyloid): could reduce the islet amyloid accumulation in vivo; also recorded: can reduce the formation of amyloid aggregates in vivo

Substance: SNNFGA
inhibition of hIAPP aggregation in vitro (hIAPP [4]): can inhibit hIAPP aggregation in vitro
prevention of hIAPP fibril formation on TEM images (fibrils of hIAPP): could not completely prevent the formation of fibrils of hIAPP

ThT fluorescence intensity compared to hIAPP group (luminescence meter) (hIAPP [1]; 100 μM NFGAIL + 10 μM hIAPP, PBS pH 7.4, 20 μM ThT, 37°C, ex 435 nm, em 485 nm, repeated thrice): did not decrease
ThT fluorescence signal compared to 0 μM group (hIAPP [3]; any concentration of NFGAIL (20-400 μM) + 10 μM hIAPP): no reduction
Substance: NFGAIL [reference compound]
effect on hIAPP fibril formation (hIAPP [4]; residues 22–27 of hIAPP, negative control): could enhance hIAPP fibril formation
reduction of cytotoxic effects of hIAPP in INS-1 cells (INS-1 cells; 100 μM NFGAIL + 10 μM hIAPP, 24 hours, MTS, OD 490 nm): no effect of reducing the cytotoxic effects of hIAPP
hIAPP fibril formation by TEM, with added peptide (hIAPP amyloid fibrils): did not reduce or even increase the amount of the fibril formation; also recorded: No reduction of the fibrils

Substance: human islet amyloid polypeptide (KCNTATCATQRLANFLVHSSNNFGAILSSTNVGSNTY; Islet amyloid polypeptide; UniProt P10997 34-70, looked up) [hIAPP, hormone secreted by β-cells consisting of 37 amino acid residues]
INS-1 cell viability compared to control group (INS-1 cells; 10 μM hIAPP alone, 24 hours, OD 490 nm, P < 0.001, unpaired t-test, repeated thrice): significantly decreased the cell viability
fibril morphology of hIAPP alone by TEM (hIAPP amyloid fibrils; 10 μM hIAPP alone): typical dense fibrils; also recorded: typical morphology and formation of dense aggregates

Substance: NYGAILSS
inhibition of hIAPP aggregation in vitro (hIAPP [4]): can inhibit hIAPP aggregation in vitro
